Earlier results, collected in US11839662B2, “Compositions for neuromodulation of mosquito feeding behavior and uses thereof” (University of Central Florida Research Foundation, Inc., priority 2017, dated 2023).

SMILES	effect on oviposition and larval hatch rate (Anopheles gambiae)	repellant and larvicidal effect (mosquitoes)
Clc1cccc(Cl)c1N=C1NCCN1 [Clonidine]	decrease oviposition and larval hatch rate	–
CC1(C)CCC[C@]2(C)[C@@H](C=O)C(C=O)=CC[C@@H]12 [Polygodial]	–	repellant ability in mosquitoes and act as a larvacide
